Reference: patent publication US20250320274A1, “RECOMBINANT HUMAN COLLAGEN AND METHOD FOR BUILDING SAME” (NANTONG UNIVERSITY, priority 2020, published 2025)
No end group written: not given here.

Test: water solubility test
Type: physicochemical
Conditions: 32 mg in 8 ml of water, directly without stirring

## GPAGARGNDGATGAAGPPGPTGPAGPPGFP
  water solubility: clear solution with no color, no precipitation, and no floating matter
